Data from PubChem BioAssay (NCI).
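Method: 48-hour compound exposure of cells in 96-well plates, five concentrations, linear interpolation of endpoints. GI50 = concentration required for 50% inhibition of growth. At the TGI there is no net growth.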

Legend:
Experiment in all cases: DTP human tumour cell line panel, 48 h
786-0 renal = system: 786-0 renal
A498 renal = system: A498 renal
A549 NSCLC = system: A549 NSCLC
COLO 205 colon = system: COLO 205 colon
HS 578T breast = system: HS 578T breast
MALME-3M melanoma = system: MALME-3M melanoma
NCI-H522 lung = system: NCI-H522 lung
OVCAR-5 ovarian = system: OVCAR-5 ovarian
SN12C renal = system: SN12C renal
SNB-75 CNS = system: SNB-75 CNS
SR leukemia = system: SR leukemia

SMILES	TGI (786-0 renal) [µM]	TGI (A498 renal) [µM]	TGI (A549 NSCLC) [µM]	TGI (COLO 205 colon) [µM]	TGI (HS 578T breast) [µM]	TGI (MALME-3M melanoma) [µM]	TGI (NCI-H522 lung) [µM]	TGI (OVCAR-5 ovarian) [µM]	TGI (SN12C renal) [µM]	TGI (SNB-75 CNS) [µM]	TGI (SR leukemia) [µM]	GI50 (A498 renal) [µM]	GI50 (A549 NSCLC) [µM]	GI50 (COLO 205 colon) [µM]	GI50 (HS 578T breast) [µM]	GI50 (SN12C renal) [µM]	GI50 (SNB-75 CNS) [µM]	GI50 (SR leukemia) [µM]	GI50 (OVCAR-5 ovarian) [µM]	GI50 (NCI-H522 lung) [µM]
C=C(Br)CNC(=O)CCC(=O)NCC(=C)Br	> 100	> 100	> 100	> 100	> 100	> 100	> 100	> 100	> 100	> 100	> 100	–	–	–	–	–	–	–	–	–
O=C1CC(c2ccccc2)n2cccc21 (stereo unspecified)	> 100	> 100	> 100	> 100	> 100	–	> 100	> 100	> 100	> 100	> 100	–	–	–	–	–	–	–	–	–
COc1ccccc1C(=O)c1c(NCc2ccccc2)c(=O)c1=O	> 100	> 100	–	98.7	> 100	75.9	31.8	> 100	> 100	> 100	–	–	–	–	–	–	–	–	–	–
OC(c1cc(C23CC4CC(CC(C4)C2)C3)nc2c(Cl)cc(Cl)cc12)C1CCCCN1 (stereo unspecified)	3.21	3.05	3.08	–	3.89	3.71	3.33	3.17	3.13	2.96	2.84	–	–	–	–	–	–	–	–	–
Cc1ccnc(NC(NC(=O)c2ccccc2)(C(F)(F)F)C(F)(F)F)c1	> 100	–	> 100	> 100	> 100	> 100	> 100	> 100	> 100	> 100	> 100	–	–	–	–	–	–	–	–	–
N#Cc1c(N)nc(Sc2ccccc2N)c(C#N)c1-c1ccc(Cl)cc1	42.7	16.9	> 75.2	> 100	32	27.7	35.8	> 87.3	40.4	–	> 40.5	–	–	–	–	–	–	–	–	–
Oc1ccc2c(c1)-c1c(c3ccccc3n1CCN1CCOCC1)CC2	> 100	> 100	–	> 100	> 100	> 100	–	61.3	> 100	68.5	> 100	–	–	–	–	–	–	–	–	–
CCCC(=O)OC1C(CO)OC(n2cc(F)c(=O)[nH]c2=O)C1F (stereo unspecified)	> 100	> 100	> 100	> 100	> 100	> 100	> 100	> 100	> 100	> 100	> 100	–	–	–	–	–	–	–	–	–
CCOC(=O)CCC(NC(=O)c1ccc(OCc2ccc3nc(-c4ccccc4)c(Cl)nc3c2)cc1)C(=O)OCC (stereo unspecified)	> 31.6	77.4	> 100	> 100	> 31.6	> 100	> 31.6	> 31.6	> 100	30.3	> 31.6	–	–	–	–	–	–	–	–	–
CC(=O)Nc1c(C)cc2c(nc3n2CCC3O)c1[N+](=O)[O-] (stereo unspecified)	> 100	> 100	> 100	> 100	> 100	> 100	> 100	> 100	> 100	> 100	–	–	–	–	–	–	–	–	–	–
Nc1onc2c1Cc1c(noc1N)-c1ccccc1-2	> 100	72.2	> 100	> 100	83.8	> 100	> 100	> 100	> 100	95.1	> 100	–	–	–	–	–	–	–	–	–
Cc1ccc(NC(=O)c2cc(S(=O)(=O)Nc3nc4ncccc4[nH]3)c(SSc3cc(Cl)c(C(=O)Nc4ccc(C)cc4)cc3S(=O)(=O)Nc3nc4ncccc4[nH]3)cc2Cl)cc1	> 100	> 100	> 100	> 100	> 100	> 100	> 100	> 100	> 100	> 100	> 100	–	–	–	–	–	–	–	–	–
Cc1ccccc1S(=O)(=O)Nn1cnc2ccc(S(=O)(=O)Nc3ccc(Cl)cc3)cc2c1=O	> 100	–	> 100	> 100	> 100	> 100	> 100	> 100	> 100	> 100	> 100	–	–	–	–	–	–	–	–	–
CCCCCCCCCCCCC(O)[C@H]1CC[C@H](C(O)CCCCCC(=O)CCCCC2CC(C(C)=O)C(=O)O2)O1 (stereo partly specified)	52.1	36.6	> 100	> 57.8	51.2	23.7	25.6	50	29	59.3	> 38.1	2.62	2.33	2.16	4.42	12.9	7.11	1.76	–	–
O=c1/c(=C/c2ccc(-c3ccc(Cl)cc3Cl)o2)sc2n1[C@@H](c1ccc(Cl)cc1)C=C(c1cc(F)c(Cl)cc1Cl)N=2	> 100	4.71	> 100	> 100	> 100	> 100	> 100	> 100	> 100	> 100	–	–	–	–	–	–	–	–	–	–
COc1ccc2c(c1)CCc1c-2n(CCN2CCCCC2)c2ccc(OC)cc12	> 100	> 100	> 100	> 100	> 100	> 100	> 100	> 100	> 100	> 100	> 100	–	–	–	–	–	–	–	–	–
CCOC(=O)c1c(N2CCOCC2)[nH]c(=O)c(C(c2ccco2)c2c(O)c(C(=O)OCC)c(N3CCOCC3)[nH]c2=O)c1O	> 100	> 100	> 100	> 100	> 100	> 100	> 100	> 100	> 100	> 100	> 100	–	–	–	–	–	–	–	–	–
CC(C)(C)OC(=O)N1C(c2cccnc2)=CC[C@H]2C3CC=C(c4cccnc4)[C@@]3(C)CC[C@@H]21 (stereo partly specified)	16.4	18.5	12.2	3.19	24.7	13.3	11.9	28.6	13	19.7	22.2	–	–	–	–	–	–	–	–	–
OCCNCNc1nc(NCNCCO)nc(N(CNCCO)CNCCO)n1	36.5	62	> 78.2	30.8	> 78.8	33.2	41.3	21	60.8	50.6	–	–	–	–	–	–	–	–	–	–
CN(C)c1nc(Cl)c2c(-c3ccccc3)c(-c3ccccc3)oc2n1	> 100	> 100	> 100	> 100	> 100	–	78.7	> 100	> 100	> 100	> 100	–	–	–	–	–	–	–	–	–

SMILES	TGI (786-0 renal) [µM]	TGI (A498 renal) [µM]	TGI (A549 NSCLC) [µM]	TGI (COLO 205 colon) [µM]	TGI (HS 578T breast) [µM]	TGI (MALME-3M melanoma) [µM]	TGI (NCI-H522 lung) [µM]	TGI (OVCAR-5 ovarian) [µM]	TGI (SN12C renal) [µM]	TGI (SNB-75 CNS) [µM]	TGI (SR leukemia) [µM]	GI50 (A498 renal) [µM]	GI50 (A549 NSCLC) [µM]	GI50 (COLO 205 colon) [µM]	GI50 (HS 578T breast) [µM]	GI50 (SN12C renal) [µM]	GI50 (SNB-75 CNS) [µM]	GI50 (SR leukemia) [µM]	GI50 (OVCAR-5 ovarian) [µM]	GI50 (NCI-H522 lung) [µM]
O=C(O)CN1C(=O)C(Cc2ccc(O)cc2)N=C(c2cccc(O)c2)c2ccccc21 (stereo unspecified)	> 100	25.3	> 100	–	> 100	> 100	> 100	> 100	34.8	> 100	> 100	–	–	–	–	–	–	–	–	–
CC(C)CC(NC(=O)OC(C)(C)C)C(=O)Nc1ccc(Nc2nc(F)nc(-c3c4ccccc4cn3C)n2)cc1 (stereo unspecified)	> 100	> 100	> 100	49.3	> 100	> 100	> 100	> 100	> 100	> 100	> 74.1	–	–	–	–	–	–	–	–	–
CC(=O)O[C@H]1[C@H](OC(=O)CC(C)(O)CC(=O)O)C[C@]2(C)C3=C(CCC2C1(C)C)[C@]1(C)CC[C@H]([C@H]2CC[C@H](C(C)(C)O)OC2O)[C@@]1(C)[C@@H](O)C3 (stereo partly specified)	37.3	26.4	98	–	41.9	57.3	–	31.7	32.1	–	60.1	–	–	–	–	–	–	–	–	–
CO/N=C(\C)c1cccc(Nc2c3ccccc3nc3occc23)c1	29.7	38.9	57.3	17.6	41	34.5	7.64	46.8	38	–	16.4	–	–	–	–	–	–	–	–	–
O=C1Oc2cc(O)cc(/C=C/c3ccc(O)cc3)c2[C@@]12c1c(O)cc(O)cc1OC2c1cccc(O)c1 (stereo partly specified)	59.7	–	> 100	69.7	56.6	> 100	–	92.4	78	> 100	> 100	–	–	–	–	–	–	–	–	–
Nn1c(Cc2ccc([N+](=O)[O-])cc2)n[nH]c1=O	> 100	–	> 100	> 100	> 100	> 100	> 100	> 100	> 100	> 100	> 100	–	–	–	–	–	–	–	–	–
COc1cc(/C=c2\sc3n(c2=O)C(c2ccc(Cl)cc2)C2=C(CCCC2C)N=3)cc(OC)c1OC (stereo unspecified)	> 100	> 100	> 100	–	> 100	–	–	> 100	> 100	> 100	> 100	–	–	–	–	–	–	–	–	–
Cc1nc2c(=O)n(C)ncc2[nH]1	> 100	> 100	> 100	> 100	> 100	–	–	> 100	> 100	> 100	> 100	–	–	–	–	–	–	–	–	–
Cc1ccc(S(=O)(=O)NNCNC(=O)c2ccccc2)cc1	> 100	–	> 100	> 100	> 100	> 100	> 100	> 100	> 100	> 100	33.1	–	–	–	–	–	–	–	–	–
NC(=S)N/N=C\c1nccc2ccccc12	–	2.39	> 100	2.89	> 100	> 23.1	32.5	> 100	0.779	–	0.731	–	–	–	–	–	–	–	0.469	–
Cc1ccc2c(c1)-c1nc(N)c(C#N)c(-c3ccccc3)c1CCS2(=O)=O	44.1	98.9	> 100	> 100	68.1	87.3	> 100	> 100	> 100	81.8	–	–	–	–	–	–	–	–	–	–
O=C1CSC(c2cccc([N+](=O)[O-])c2)N1c1ccc(-n2c(-c3ccccc3)nc3ccccc3c2=O)cc1 (stereo unspecified)	> 100	> 100	> 100	> 100	> 100	> 100	> 100	> 100	> 100	–	> 100	–	–	–	–	–	–	–	–	–
Cc1cc(=O)oc2c(CNC(Cc3ccccc3)C(=O)O)c(O)ccc12 (stereo unspecified)	> 100	–	> 100	> 100	> 100	> 100	> 100	> 100	> 100	> 100	> 100	–	–	–	–	–	–	–	–	–
COc1cc2c(cc1OCCCC(=O)Nc1ccc3ccc4cccc5ccc1c3c45)N=C[C@@H]1CCCN1C2=O	–	< 0.0509	–	4.77	0.064	–	–	< 0.0506	0.0423	1.12	–	< 0.0243	< 0.021	2.03	< 0.0167	< 0.0136	–	< 0.01	< 0.01	< 0.0133
CO/N=C(\C)CCC#Cc1ccccc1C(=O)OC	> 10	> 10	> 10	> 10	> 10	> 10	–	> 10	> 10	–	> 10	–	–	–	–	–	–	–	–	–
COC(=O)C1(C)C=CC(=O)C2(C)C1C(O)C1OC3CC(c4ccoc4)C(C)=C3C1(C)C2CC(=O)O (stereo unspecified)	> 100	> 100	> 100	> 100	> 100	> 100	> 100	> 100	> 100	> 100	–	–	–	–	–	–	–	–	–	–
C=C1CCC([N+](=O)[O-])[C@](C)(N=O)CC[C@@H]2C1CC2(C)C (stereo partly specified)	42.6	–	36	60.5	39	49.5	49.1	36.1	> 100	45.3	> 100	–	–	–	–	–	–	–	–	–
CC(C)NC(=O)CN1CCN(c2c(O)c3c(c(O)c2Cl)C(=O)C=CC3=O)CC1	6.14	7.29	20.3	2.89	6.42	2.7	3.33	6.54	3.28	11.3	–	–	–	–	–	–	–	–	–	–
Cn1c(-c2cccc([N+](=O)[O-])c2)[n+](C)c2ccccc21	> 100	> 100	> 100	> 100	> 100	> 100	–	> 100	–	> 100	> 100	–	–	–	–	–	–	–	–	–
C=CC(Cl)(CBr)CCC(Br)C(C)(C)Cl (stereo unspecified)	28.1	27.2	89.3	29.5	> 100	35.8	24.4	31.1	48.4	68.8	–	–	–	–	–	–	–	–	–	–
